In patent US12661335B2, “Halogenated xanthene-containing topical anti-gram-positive bacterial ophthalmic composition and method” (Provectus Pharmatech, Inc., priority 2021, dated 2026):
≈ marks a conversion by molar mass, not a printed value. Read-outs that look alike come from different tables or passages of the source.

Experiments:
[1] = system: Bacillus cereus NRRL B-569; experiment: MIC, broth dilution method, dark condition; assay type: cell-based; details: NRRLB569, Table 1 entry 2, 24 h
Bacillus cereus 13061 ™ = experiment: MIC, broth dilution method, dark condition; assay type: cell-based; details: Table 1 entry 3, 24 h
[2] = system: Staphylococcus aureus 6538 ™; experiment: MIC, broth dilution method, dark condition; assay type: cell-based; details: Table 1 entry 4, 24 h
[3] = system: Staphylococcus aureus subsp. Aureus BAA-41 ™ (a MRSA strain); experiment: MIC, broth dilution method, dark condition; assay type: cell-based; details: Table 1 entry 6, 24 h
[4] = system: Staphylococcus aureus subsp. Aureus BAA-42 ™ (a MRSA strain); experiment: MIC, broth dilution method, dark condition; assay type: cell-based; details: Table 1 entry 7, 24 h
[5] = system: Staphylococcus aureus subsp. Aureus BAA-44 ™ (a MRSA strain); experiment: MIC, broth dilution method, dark condition; assay type: cell-based; details: Table 1 entry 8, 24 h
[6] = system: Staphylococcus aureus subsp. Aureus BAA-2094 ™ (a MRSA strain); experiment: MIC, broth dilution method, dark condition; assay type: cell-based; details: Table 1 entry 9, 24 h
[7] = system: Staphylococcus aureus BAA-2313 ™ (a MRSA strain); experiment: MIC, broth dilution method, dark condition; assay type: cell-based; details: Table 1 entry 10, 24 h
[8] = system: Staphylococcus aureus strain AIS 1000505 (VRS10, a vancomycin-resistant strain); experiment: MIC, broth dilution method, dark condition; assay type: cell-based; details: Table 1 entry 14, 24 h
[9] = system: Staphylococcus epidermidis 35984 ™; experiment: MIC, broth dilution method, dark condition; assay type: cell-based
[10] = system: Enterococcus faecalis 19433 ™; experiment: MIC, broth dilution method, dark condition; assay type: cell-based; details: Table 1 entry 17, 24 h
[11] = system: Enterococcus faecium NR-32065 (a vancomycin- resistant strain); experiment: MIC, broth dilution method, dark condition; assay type: cell-based; details: Table 1 entry 20, 24 h
[12] = system: Mycobacterium smagmatis 607 ™; experiment: MIC, broth dilution method, dark condition; assay type: cell-based, Mycobacterium smegmatis
[13] = system: Mycobacterium avium subsp. Avium 2285; experiment: MIC, broth dilution method, dark condition; assay type: cell-based; details: Table 1 entry 26, 24 h
[14] = system: Mycobacterium kansasii 824 ™; experiment: MIC, broth dilution method, dark condition; assay type: cell-based; details: Table 1 entry 27, 24 h
[15] = system: Mycobacteroides abscessus 19977 ™; experiment: MIC, broth dilution method, dark condition; assay type: cell-based; details: Table 1 entry 29, 24 h
Gram-negative bacteria = experiment: Susceptibility of Gram-negative bacteria, dark condition; assay type: cell-based
Excerpt: Under the dark condition RB is known to display antibacterial activity at high concentrations.

Mycobacterial spp. = experiment: Killing concentrations for five Mycobacterial spp.; assay type: cell-based, Mycobacterium spp.
Method: Antibacterial activity of RB against 5 Mycobacterium spp. Was examined (entries 25-29). […] RB inhibited growth of Saccharomyces cerevisiae at higher concentrations than the bacteria under the dark condition (entry 30).
RB kills Mycobacterial spp. At 12.5-25.0 mg/mL in illumination conditions, and at 25.0-50.0 mg/mL in dark conditions (Table 1). In both conditions, RB kills five Mycobacterial spp. At a slower rate than that of Gram-positive bacteria. RB seems to have low-permeability of mycobacterial cell walls. Due to rapid bactericidal effect of RB against Gram-positive bacteria even in the dark condition, generation of RB-resistant mutants of Gram-positive bacteria is an extremely difficult task.

[16] = system: biofilms of S. aureus 6508™; experiment: Biofilm eradication assay; assay type: cell-based, Staphylococcus aureus; details: for viable bacteria in biofilm: dark condition
Method: 62:394-399 (2013)], and was used as a control.
Linezolid was applied as a positive control at very high concentration of 600 μg/mL (>100×MIC for the planktonic cells) in biofilm assays reported by Kurosu et al., Molecules 27:322 (2022).

[17] = system: biofilms of E. faecium NR-32065; experiment: Biofilm eradication assay; assay type: cell-based, Enterococcus faecium; details: fluorescent and dark conditions; concentration-dependent
Excerpt: Linezolid is not an effective drug in eradicating biofilms of Gram-positive bacteria, but has a beneficial effect in prevention of biofilm formations [Reiter et al., J. Med. Microbiol. 62:394-399 (2013)], and was used as a control.
We confirm that RB is an excellent agent to eradicate biofilms of Gram-positive bacteria, including drug-resistant strains. […] These studies indicate that RB has the potential antibacterial agent to kill drug-resistant bacteria in any growth phases.

[18] = system: progressive infectious keratitis; details: cited from earlier work
[19] = system: Fusarium keratoplasticum-infected cornea; details: one patient, cited from earlier work
[20] = system: patient-isolated methicillin-resistant Staphylococcus aureus (MRSA); details: cited from earlier work
[21] = system: vancomycin-resistant S. aureus strains; details: under either lighting condition (fluorescent or LED); entries 12-16
Method: Minimum inhibitory concentrations (MICs) were determined by broth dilution microplate alamar blue assay or by OD measurement. All compounds were stored in DMSO or saline (1 mg/100 μL concentration). This concentration was used as the stock solution for all MIC studies. Each compound from stock solution was placed in the first well of a sterile 96 well plate and a serial dilution was conducted with the culturing broth (total volume of 10 μL). The bacterial suspension at log phase (190 μL) was added to each well (total volume of 200 μL), and was incubated for 24 h at 37° C. 20 μL of resazurin (0.02%) was added to each well and incubated for 4 h, (National Committee for Clinical Laboratory Standards (NCCLS) method (pink=growth, blue=no visible growth)). The OD measurements were performed for all experiments prior to performing colorimetric assays. The absorbance of each well was also measured at 570 and 600 nm via UV-Vis.

F. solani = details: three days of incubation, cited from earlier work
A. fumigattus = details: three days of incubation, cited from earlier work
C. albicans = details: three days of incubation, cited from earlier work
[22] = concentrations below 2.0%; cited from earlier work

`O=C(O)c1c(Cl)c(Cl)c(Cl)c(Cl)c1-c1c2cc(I)c(=O)c(I)c-2oc2c(I)c(O)c(I)cc12` [RB, 4,5,6,7-tetrachloro-2′,4′,5′,7′-tetraiodofluorescein] showed an MIC [1] of 50 µg/mL (≈ 51.4 µM), an MIC (Bacillus cereus 13061 ™) of 50 µg/mL (≈ 51.4 µM) and an MIC [2] of 50 µg/mL (≈ 51.4 µM). It also gave an MIC [3] of 25 µg/mL (≈ 25.7 µM), an MIC [4] of 50 µg/mL (≈ 51.4 µM) and an MIC [5] of 50 µg/mL (≈ 51.4 µM). It also gave an MIC [6] of 25 µg/mL (≈ 25.7 µM), an MIC [7] of 25 µg/mL (≈ 25.7 µM) and an MIC [8] of 25 µg/mL (≈ 25.7 µM). The MIC ([9]; Staphylococcus epidermidis, Table 1 entry 16, broth dilution, dark, 24 h) was 25 µg/mL (≈ 25.7 µM), the “killing by RB” value ([9]; aerobic condition, entry 16) was “effectively killed” and the MIC [10] was 25 µg/mL (≈ 25.7 µM). For the same molecule, the MIC [11] was 50 µg/mL (≈ 51.4 µM), the MIC ([12]; Mycobacterium, Table 1 entry 25, broth dilution, dark, 24 h, read-out: MIC) was 25 µg/mL (≈ 25.7 µM) and the MIC ([12]; dark condition, triplicated, read-out: MIC (μg/mL) against M. smegmatis 607 ™ (wild-type)) was 12.5 µg/mL (≈ 12.8 µM). It also gave an MIC [13] of 50 µg/mL (≈ 51.4 µM), an MIC [14] of 50 µg/mL (≈ 51.4 µM) and an MIC [15] of 50 µg/mL (≈ 51.4 µM). The “susceptibility of Gram-negative bacteria to RB” value (Gram-negative bacteria) was “not susceptible”, the “concentration at which RB kills Mycobacterial spp.” value (Mycobacterial spp.; dark conditions) was 25.0 to 50.0 mg/mL and the “concentration at which RB kills Mycobacterial spp.” value (Mycobacterial spp.; illumination conditions) was 12.5 to 25.0 mg/mL. For the same molecule, the “viable bacteria in biofilm” value ([16]; RB 50.0 μg/mL (2×MIC under dark)) was “significantly reduced the number of viable bacteria”, the “viable bacteria in biofilm” value ([16]; RB 1,000 μg/mL) was “No viable bacteria” and the “biofilm eradication, log reduction” value ([16]; under the fluorescent light, RB 30.0 μg/mL (38×MIC)) was 7 log reduction. The “viable cells in biofilm” value [17] was “significantly reduced”, the “Successful RB-PDAT (avoidance of therapeutic keratoplasty), share of cases” value ([18]; 0.1 or 0.2% RB on de-epithelized corneas 30 minutes, then 5.4 J/cm^2 green LED light 15 minutes, 18 patients unresponsive to standard therapy) was 72% and the “average time to clinical resolution after RB-PDAT” value ([18]; 0.1 or 0.2% RB, 5.4 J/cm^2 green LED light) was 46.9 ± 26.4 days. The “time to resolution of pain post irradiation” value ([19]; RB dripped on debrided cornea 30 minutes, 518 nm light 0.9 J/cm^2) was 36 h, the “decrease of infiltrate size in all directions” value ([19]; four days after treatment) was “approximately 1 mm” and the “growth inhibition of MRSA strain 1” value ([20]; RB 0.03% in dark conditions) was “incomplete inhibition”. For the same molecule, the “growth inhibition of MRSA strain 2” value ([20]; RB 0.03% in dark conditions) was “complete inhibition”, the “growth inhibition of both MRSA strains” value ([20]; RB 0.1% in the dark) was “Complete growth inhibition” and the “growth inhibition of both MRSA strains” value ([20]; RB 0.1 and 0.03%, ambient room light or green LED irradiation (5.4 J/cm^2)) was “Complete growth inhibition”. For the same molecule, the “concentration at which all vancomycin-resistant strains were killed” value [21] was “below 1.0 μg/mL”, the “Day 3 Growth Inhibition Percentage, RB + 518 nm Irradiation” value (F. solani; 518 nm, 5.4 J/cm^2) was 78.2 ± 2.1 Percentage and the “Day 3 Growth Inhibition Percentage, RB Only” value (F. solani; dark, no irradiation) was 7.3 ± 1.1 Percentage. For the same molecule, the “Day 3 Growth Inhibition Percentage, RB + 518 nm Irradiation” value (A. fumigattus; 518 nm, 5.4 J/cm^2) was 79.8 ± 9 Percentage, the “Day 3 Growth Inhibition Percentage, RB Only” value (A. fumigattus; dark, no irradiation) was 6.6 ± 0. Percentage and the “Day 3 Growth Inhibition Percentage, RB + 518 nm Irradiation” value (C. albicans; 518 nm, 5.4 J/cm^2) was 95.6 ± 3 Percentage. For the same molecule, the “Day 3 Growth Inhibition Percentage, RB Only” value (C. albicans; dark, no irradiation) was 42.2 ± 3.7 Percentage and the “safety of RB under natural and artificial lights” value [22] was “considered to be safe”.
